The record followed here is PubChem BioAssay (NCI).

Structures are written as SMILES.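 Assay format: 96-well plates, 48-hour exposure. TGI: concentration producing complete growth inhibition.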 Where only a bound is given, the exact number is not on record here.

One test has as its system NCI-H23 lung. Description: NCI tumour cell line growth inhibition, 48 h.
As for `CC1CCC[P+](Cc2ccccc2)(c2ccccc2)CC1` (stereo not drawn), the TGI is over 100 µM.

For the next test, the system named is NCI-H460 lung. Description: NCI tumour cell line growth inhibition, 48 h.
Take `COc1ccc(CNc2nc3ccc(C(F)(F)F)cc3nc2-c2ccccc2)cc1OC`: the TGI is over 100 µM.

Consider `O=C(O/N=C1/CCC/C1=C\c1ccccc1)c1ccc([N+](=O)[O-])cc1`, for which the TGI is over 100 µM.

In turn, `C=C1CC(OC)(C(O)C(=O)N[C@H]2OCO[C@H]3C2O[C@H](C[C@@H](COC)OC)C(C)(C)C3OC)O[C@H](C)[C@@H]1C` (stereo partly drawn) had a TGI of under 0.00482 µM.

On to `CC1CCC[P+](Cc2ccccc2)(c2ccccc2)CC1` (stereo not drawn), for which the TGI is over 100 µM.

The next test deals with NCI-H522 lung. Description: NCI tumour cell line growth inhibition, 48 h.
In the case of `O=C(O/N=C1/CCC/C1=C\c1ccccc1)c1ccc([N+](=O)[O-])cc1`, the TGI is over 100 µM.

The test system of a further test is NCI/ADR-RES ovarian. Description: NCI tumour cell line growth inhibition, 48 h.
`C=C1CC(OC)(C(O)C(=O)N[C@H]2OCO[C@H]3C2O[C@H](C[C@@H](COC)OC)C(C)(C)C3OC)O[C@H](C)[C@@H]1C` (stereo partly drawn) showed a TGI of under 0.00482 µM.

The subject of the next test is OVCAR-3 ovarian. Description: NCI tumour cell line growth inhibition, 48 h.
`COc1ccc(CNc2nc3ccc(C(F)(F)F)cc3nc2-c2ccccc2)cc1OC`: the TGI was over 100 µM.

Regarding `O=C(O/N=C1/CCC/C1=C\c1ccccc1)c1ccc([N+](=O)[O-])cc1`, the TGI is over 100 µM.

A further test relates to OVCAR-4 ovarian. Description: NCI tumour cell line growth inhibition, 48 h.
As to `O=C(O/N=C1/CCC/C1=C\c1ccccc1)c1ccc([N+](=O)[O-])cc1`, the TGI is over 100 µM.

`C=C1CC(OC)(C(O)C(=O)N[C@H]2OCO[C@H]3C2O[C@H](C[C@@H](COC)OC)C(C)(C)C3OC)O[C@H](C)[C@@H]1C` (stereo partly drawn) returned a TGI of under 0.00482 µM.

`CC1CCC[P+](Cc2ccccc2)(c2ccccc2)CC1` (stereo not drawn) returned a TGI of 90.4 µM.

In the next test the test system is OVCAR-5 ovarian. Description: NCI tumour cell line growth inhibition, 48 h.
In the case of `COc1ccc(CNc2nc3ccc(C(F)(F)F)cc3nc2-c2ccccc2)cc1OC`, the TGI is over 100 µM.

`O=C(O/N=C1/CCC/C1=C\c1ccccc1)c1ccc([N+](=O)[O-])cc1` registered a TGI of over 100 µM.

For `CC1CCC[P+](Cc2ccccc2)(c2ccccc2)CC1` (stereo not drawn), the TGI is over 100 µM.

The test system of another test is OVCAR-8 ovarian. Description: NCI tumour cell line growth inhibition, 48 h.
In the case of `COc1ccc(CNc2nc3ccc(C(F)(F)F)cc3nc2-c2ccccc2)cc1OC`, the TGI is over 100 µM.

In turn, `O=C(O/N=C1/CCC/C1=C\c1ccccc1)c1ccc([N+](=O)[O-])cc1` registered a TGI of over 100 µM.

With `CC1CCC[P+](Cc2ccccc2)(c2ccccc2)CC1` (stereo not drawn), the TGI was over 100 µM.

The next test concerns RPMI-8226 leukemia. Description: NCI tumour cell line growth inhibition, 48 h.
`COc1ccc(CNc2nc3ccc(C(F)(F)F)cc3nc2-c2ccccc2)cc1OC` yielded a TGI of over 100 µM.

Molecule `O=C(O/N=C1/CCC/C1=C\c1ccccc1)c1ccc([N+](=O)[O-])cc1` yielded a TGI of over 100 µM.

Regarding `C=C1CC(OC)(C(O)C(=O)N[C@H]2OCO[C@H]3C2O[C@H](C[C@@H](COC)OC)C(C)(C)C3OC)O[C@H](C)[C@@H]1C` (stereo partly drawn), the TGI is under 0.00482 µM.

`CC1CCC[P+](Cc2ccccc2)(c2ccccc2)CC1` (stereo not drawn) returned a TGI of 51.4 µM.

A further test has as its system RXF 393 renal. Description: NCI tumour cell line growth inhibition, 48 h.
As for `COc1ccc(CNc2nc3ccc(C(F)(F)F)cc3nc2-c2ccccc2)cc1OC`, the TGI is over 100 µM.

The molecule `O=C(O/N=C1/CCC/C1=C\c1ccccc1)c1ccc([N+](=O)[O-])cc1` showed a TGI of over 100 µM.

`C=C1CC(OC)(C(O)C(=O)N[C@H]2OCO[C@H]3C2O[C@H](C[C@@H](COC)OC)C(C)(C)C3OC)O[C@H](C)[C@@H]1C` (stereo partly drawn) registered a TGI of under 0.00482 µM.

With `CC1CCC[P+](Cc2ccccc2)(c2ccccc2)CC1` (stereo not drawn), the TGI is over 100 µM.

The test system of the next test is RXF-631 renal. Description: NCI tumour cell line growth inhibition, 48 h.
In the case of `COc1ccc(CNc2nc3ccc(C(F)(F)F)cc3nc2-c2ccccc2)cc1OC`, the TGI was over 100 µM.

The molecule `O=C(O/N=C1/CCC/C1=C\c1ccccc1)c1ccc([N+](=O)[O-])cc1` returned a TGI of over 100 µM.

`CC1CCC[P+](Cc2ccccc2)(c2ccccc2)CC1` (stereo not drawn) came in with a TGI of over 100 µM.

In another test the test system is SF-268 CNS. Description: NCI tumour cell line growth inhibition, 48 h.
As to `COc1ccc(CNc2nc3ccc(C(F)(F)F)cc3nc2-c2ccccc2)cc1OC`, the TGI is over 100 µM.

Take `O=C(O/N=C1/CCC/C1=C\c1ccccc1)c1ccc([N+](=O)[O-])cc1`: the TGI is over 100 µM.

`C=C1CC(OC)(C(O)C(=O)N[C@H]2OCO[C@H]3C2O[C@H](C[C@@H](COC)OC)C(C)(C)C3OC)O[C@H](C)[C@@H]1C` (stereo partly drawn) displayed a TGI of under 0.00482 µM.

For `CC1CCC[P+](Cc2ccccc2)(c2ccccc2)CC1` (stereo not drawn), the TGI was over 100 µM.

The next test has as its system SF-295 CNS. Description: NCI tumour cell line growth inhibition, 48 h.
`COc1ccc(CNc2nc3ccc(C(F)(F)F)cc3nc2-c2ccccc2)cc1OC` showed a TGI of over 100 µM.

For the molecule `O=C(O/N=C1/CCC/C1=C\c1ccccc1)c1ccc([N+](=O)[O-])cc1`, the TGI is over 100 µM.

As to `C=C1CC(OC)(C(O)C(=O)N[C@H]2OCO[C@H]3C2O[C@H](C[C@@H](COC)OC)C(C)(C)C3OC)O[C@H](C)[C@@H]1C` (stereo partly drawn), the TGI was under 0.00482 µM.

In another test the test system is SF-539 CNS. Description: NCI tumour cell line growth inhibition, 48 h.
The molecule `COc1ccc(CNc2nc3ccc(C(F)(F)F)cc3nc2-c2ccccc2)cc1OC` came in with a TGI of over 100 µM.

In turn, `O=C(O/N=C1/CCC/C1=C\c1ccccc1)c1ccc([N+](=O)[O-])cc1` gave a TGI of over 100 µM.

In turn, `C=C1CC(OC)(C(O)C(=O)N[C@H]2OCO[C@H]3C2O[C@H](C[C@@H](COC)OC)C(C)(C)C3OC)O[C@H](C)[C@@H]1C` (stereo partly drawn) displayed a TGI of under 0.00482 µM.

`CC1CCC[P+](Cc2ccccc2)(c2ccccc2)CC1` (stereo not drawn) displayed a TGI of over 100 µM.

The next test concerns SK-MEL-2 melanoma. Description: NCI tumour cell line growth inhibition, 48 h.
In the case of `COc1ccc(CNc2nc3ccc(C(F)(F)F)cc3nc2-c2ccccc2)cc1OC`, the TGI is over 100 µM.

Take `O=C(O/N=C1/CCC/C1=C\c1ccccc1)c1ccc([N+](=O)[O-])cc1`: the TGI is over 100 µM.

For the molecule `CC1CCC[P+](Cc2ccccc2)(c2ccccc2)CC1` (stereo not drawn), the TGI came out at 78.2 µM.

Another test relates to SK-MEL-28 melanoma. Description: NCI tumour cell line growth inhibition, 48 h.
For `COc1ccc(CNc2nc3ccc(C(F)(F)F)cc3nc2-c2ccccc2)cc1OC`, the TGI is over 100 µM.

With `O=C(O/N=C1/CCC/C1=C\c1ccccc1)c1ccc([N+](=O)[O-])cc1`, the TGI is over 100 µM.

Turning to `C=C1CC(OC)(C(O)C(=O)N[C@H]2OCO[C@H]3C2O[C@H](C[C@@H](COC)OC)C(C)(C)C3OC)O[C@H](C)[C@@H]1C` (stereo partly drawn), the TGI was under 0.00482 µM.

Molecule `CC1CCC[P+](Cc2ccccc2)(c2ccccc2)CC1` (stereo not drawn) had a TGI of over 100 µM.

For another test, the system named is SK-MEL-5 melanoma. Description: NCI tumour cell line growth inhibition, 48 h.
In turn, `O=C(O/N=C1/CCC/C1=C\c1ccccc1)c1ccc([N+](=O)[O-])cc1` gave a TGI of over 100 µM.
